Article PMC11348715 (Chemical Science, 2024)

Experiment: Caco-2 permeability assay
Assay type: in vitro ADME
Details: human

C[C@H]1O[C@@H](O[C@H]2[C@@H](O)C[C@H](O[C@H]3[C@@H](O)C[C@H](O[C@H]4CC[C@@]5(C)[C@H](CC[C@@H]6[C@@H]5C[C@@H](O)[C@]5(C)[C@@H](C7=CC(=O)OC7)CC[C@]65O)C4)O[C@@H]3C)O[C@@H]2C)C[C@H](O)[C@@H]1O [digoxin]
Papp A→B at 10 µM: 1.59 ×10⁻⁶ cm/s

COCCc1ccc(OCC(O)CNC(C)C)cc1 (centres unmarked) [metoprolol]
Papp A→B at 10 µM: 19.8 ×10⁻⁶ cm/s
